Reference: the NIST ThermoML archive (doi:10.1016/j.fluid.2011.01.027)

CCCCCCn1cc[n+](C)c1.O=S(=O)([O-])C(F)(F)F [1-hexyl-3-methylimidazolium trifluoromethanesulfonate]
surface tension liquid-gas [mN/m]
Settings | Wilhelmy plate method | de Nouy ring method
293.98 K | 32.58 | –
294.03 K | – | 32.64
298.11 K | – | 32.37
298.13 K | 32.37 | –
303.23 K | 32.17 | –
303.24 K | – | 32.19
308.28 K | 31.99 | –
308.32 K | – | 32.01
313.29 K | 31.8 | –
313.3 K | – | 31.86
318.29 K | – | 31.66
318.3 K | 31.64 | –
323.49 K | – | 31.42
323.5 K | 31.45 | –
328.04 K | 31.35 | –
328.12 K | – | 31.25
333.26 K | 31.09 | –
333.32 K | – | 30.89
337.85 K | 30.92 | –
337.88 K | – | 30.81
342.94 K | 30.72 | –
343.09 K | – | 30.5
347.58 K | 30.55 | –
347.59 K | – | 30.38
355.44 K | 30.28 | 30.06

CCCCn1cc[n+](C)c1.O=S(=O)([O-])C(F)(F)F [1-butyl-3-methylimidazolium trifluoromethanesulfonate]
surface tension liquid-gas [mN/m]
Settings | Wilhelmy plate method | du Nouy method
292.18 K | 35.39 | –
292.24 K | – | 35.4
293.4 K | 35.21 | –
293.45 K | – | 35.17
298.06 K | 35.18 | –
298.12 K | – | 35.2
298.22 K | 35.09 | –
298.27 K | – | 35.1
303.03 K | 35.05 | –
303.09 K | – | 35.09
303.18 K | 34.87 | –
303.2 K | – | 34.98
308.01 K | 34.71 | –
308.06 K | 34.83 | –
308.08 K | – | 34.85
313.26 K | 34.65 | –
313.31 K | – | 34.63
313.58 K | – | 34.59
313.59 K | 34.54 | –
318.1 K | – | 34.44
318.13 K | 34.53 | –
318.51 K | 34.35 | –
318.68 K | – | 34.36
322.87 K | 34.34 | –
322.93 K | 34.18 | –
322.99 K | – | 34.22
327.64 K | 34.19 | 34.08
328.05 K | 34.03 | –
328.09 K | – | 33.8
332.66 K | 33.85 | –
332.74 K | – | 33.82
333.21 K | 34.01 | –
333.25 K | – | 33.89
337.68 K | 33.81 | –
337.83 K | 33.74 | –
337.84 K | – | 33.44
337.92 K | – | 33.73
342.72 K | 33.61 | –
343.12 K | – | 33.47
343.53 K | 33.47 | –
343.61 K | – | 33.41
347.73 K | – | 33.36
347.79 K | 33.54 | –
348.54 K | 33.28 | –
348.64 K | – | 32.9
352.45 K | 33.27 | –
352.7 K | – | 33.08
355.89 K | 33 | –
356 K | – | 32.82
